# Assay results reported in DBAASP.
# Legend:
# Experiment in all cases: ≥ marks a high value that may be exact or a test limit, other limits are often not marked, values filed in µg/mL are converted to µM
# Enterococcus faecalis = tested on: Enterococcus faecalis
# [1] = tested on: Stenotrophomonas maltophilia
# Serratia marcescens = tested on: Serratia marcescens
# Escherichia coli = tested on: Escherichia coli
# Acinetobacter baumannii = tested on: Acinetobacter baumannii
# Pseudomonas aeruginosa = tested on: Pseudomonas aeruginosa
# Staphylococcus aureus = tested on: Staphylococcus aureus
# Klebsiella pneumoniae = tested on: Klebsiella pneumoniae
# Enterococcus faecium = tested on: Enterococcus faecium
# Staphylococcus aureus MR = tested on: Staphylococcus aureus MR
# Streptococcus pneumoniae = tested on: Streptococcus pneumoniae
# [2] = tested on: Escherichia coli ATCC 25726
# [3] = tested on: Staphylococcus aureus ATCC 25923
# [4] = tested on: Staphylococcus epidermidis RP62A/1
# [5] = tested on: Candida albicans ATCC 90028
# [6] = tested on: Proteus mirabilis ATCC 25933
# [7] = tested on: Staphylococcus aureus ATCC 29213
# [8] = tested on: Pseudomonas aeruginosa ATCC 27853
# [9] = tested on: Klebsiella pneumoniae ATCC 700603
# [10] = tested on: Staphylococcus epidermidis RP62A
# [11] = tested on: Candida albicans ATCC 10231
# [12] = tested on: Pseudomonas putida ATCC 17426
# [13] = tested on: Bacillus subtilis ATCC 62037
# [14] = tested on: Streptococcus mutans ATCC 25175
# [15] = tested on: Escherichia coli ATCC 27325
# [16] = tested on: Salmonella enterica subsp. enterica serovar Enteritidis ATCC 13076
# [17] = tested on: Saccharomyces cerevisiae ATCC 44774
# [18] = tested on: Cryptococcus neoformans ATCC 34881
# [19] = tested on: Staphylococcus aureus ATCC 15752
# [20] = tested on: Corynebacterium xerosis C875
# Escherichia coli DC2 = tested on: Escherichia coli DC2
# [21] = tested on: Staphylococcus epidermidis C621
# Escherichia coli UB1005 = tested on: Escherichia coli UB1005
# Bacillus anthracis = tested on: Bacillus anthracis
# Bacillus cereus = tested on: Bacillus cereus
smiles,measurement,setting,value
CC[C@H](C)[C@H](NC(=O)[C@@H](NC(=O)[C@H](CCCCN)NC(=O)[C@H](CS)NC(=O)[C@H](CCCCN)NC(=O)[C@H](CCCN=C(N)N)NC(=O)[C@H](CC(C)C)NC(=O)[C@@H](NC(=O)[C@H](CCCCN)NC(=O)[C@@H](NC(=O)[C@H](CC(C)C)NC(=O)[C@H](C)NC(=O)[C@@H](NC(=O)[C@H](Cc1ccccc1)NC(=O)CNC(=O)[C@@H]1CCCN1C(=O)[C@@H]1CCCN1C(=O)[C@@H](NC(=O)[C@H](CCC(=O)O)NC(=O)[C@H](CCCN=C(N)N)NC(=O)[C@H](CC(N)=O)NC(=O)[C@@H](N)CCC(=O)O)C(C)C)[C@@H](C)O)[C@@H](C)CC)[C@@H](C)O)[C@@H](C)CC)C(=O)O [ENREVPPGFTALIKTLRKCKII],MIC,Enterococcus faecalis,4.47 µM
same,MIC,[1],12.7 µM
same,MIC,Serratia marcescens,8.95 µM
same,MIC,Escherichia coli,3.16 µM
same,MIC,Acinetobacter baumannii,12.7 µM
same,MIC,Pseudomonas aeruginosa,12.7 µM
same,MIC,Staphylococcus aureus,4.47 µM
same,MIC,Klebsiella pneumoniae,4.47 µM
same,MIC,Enterococcus faecium,12.7 µM
same,MIC,Staphylococcus aureus MR,4.47 µM
same,MIC,Streptococcus pneumoniae,4.47 µM
CC[C@H](C)[C@H](N)C(=O)N[C@@H](CCCCN)C(=O)N[C@@H](CC(C)C)C(=O)N[C@@H](CO)C(=O)N[C@@H](CCCCN)C(=O)N[C@@H](CCCCN)C(=O)N[C@H](C(=O)N[C@@H](CCCCN)C(=O)N[C@@H](CC(=O)O)C(=O)N[C@@H](CC(N)=O)C(=O)N[C@@H](CC(C)C)C(=O)N[C@@H](CCCCN)C(=O)N[C@@H](CCCCN)C(=O)N[C@H](C(=O)N[C@@H](CC(C)C)C(=O)N[C@@H](CCCCN)C(=O)NCC(=O)N[C@@H](C)C(=O)N[C@H](C(=O)N[C@@H](CCCCN)C(=O)NCC(=O)N[C@@H](C)C(=O)N[C@H](C(=O)N[C@@H](C)C(=O)N[C@H](C(=O)N[C@@H](C)C(=O)N[C@@H](CCCCN)C(=O)N[C@@H](CCSC)C(=O)N[C@H](C(N)=O)C(C)C)C(C)C)[C@@H](C)CC)[C@@H](C)CC)C(C)C)[C@@H](C)O [IKLSKKTKDNLKKVLKGAIKGAIAVAKMV],MIC,[2],3.1 µM
same,MIC,[1],1.6 µM
same,MIC,[3],3.1 µM
same,MIC,[4],0.8 µM
same,MIC,[5],≥ 100 µM
same,MIC,[6],≥ 100 µM
same,MIC,Acinetobacter baumannii,3.1 µM
same,MIC,[7],3.1 µM
same,MIC,[8],12.5 µM
same,MIC,[9],6.25 µM
same,MIC,[10],1.6 µM
CC(C)[C@H](NC(=O)[C@H](CCCCN)NC(=O)CNC(=O)CNC(=O)[C@H](CCC(N)=O)NC(=O)[C@H](CCCCN)NC(=O)CNC(=O)[C@H](CCCN=C(N)N)NC(=O)CNC(=O)[C@@H](N)CCCCN)C(=O)N[C@@H](CCCN=C(N)N)C(=O)N[C@@H](C)C(=O)N[C@@H](CCCCN)C(=O)N[C@@H](C)C(=O)N[C@@H](CCCCN)C(=O)N[C@H](C(=O)N[C@@H](CCCN=C(N)N)C(=O)O)[C@@H](C)O [KGRGKQGGKVRAKAKTR],MIC,[11],0.548 µM
same,MIC,[12],0.548 µM
same,MIC,[13],0.548 µM
same,MIC,[14],1.1 µM
same,MIC,[15],0.548 µM
same,MIC,[16],2.19 µM
same,MIC,[17],0.548 µM
same,MIC,[18],0.548 µM
same,MIC,[19],2.19 µM
C[C@H](NC(=O)[C@H](C)NC(=O)[C@H](C)NC(=O)[C@H](Cc1c[nH]c2ccccc12)NC(=O)[C@H](C)NC(=O)[C@H](C)NC(=O)[C@H](C)NC(=O)[C@H](CCCCN)NC(=O)[C@@H](N)CCCCN)C(=O)N[C@@H](C)C(=O)N[C@@H](C)C(=O)N[C@@H](Cc1c[nH]c2ccccc12)C(=O)N[C@@H](C)C(=O)N[C@@H](C)C(=O)N[C@@H](Cc1c[nH]c2ccccc12)C(=O)N[C@@H](C)C(=O)N[C@@H](C)C(=O)N[C@@H](Cc1c[nH]c2ccccc12)C(=O)N[C@@H](C)C(=O)N[C@@H](C)C(=O)N[C@@H](C)C(=O)N[C@@H](CCCCN)C(=O)N[C@@H](CCCCN)C(=O)N[C@@H](CCCCN)C(=O)N[C@@H](CCCCN)C(N)=O [KKAAAWAAAAAWAAWAAWAAAKKKK],MIC,[20],0.25 µM
same,MIC,Escherichia coli DC2,8 µM
same,MIC,[21],0.25 µM
same,MIC,Escherichia coli UB1005,16 µM
CC[C@H](C)[C@H](NC(=O)[C@@H]1CCCN1C(=O)[C@H](Cc1c[nH]c2ccccc12)NC(=O)[C@H](CCC(N)=O)NC(=O)[C@H](CCCCN)NC(=O)[C@H](CC(C)C)NC(=O)[C@H](CC(C)C)NC(=O)[C@@H](N)CCCCN)C(=O)NCC(=O)N[C@@H](CCCCN)C(=O)N[C@@H](CC(C)C)C(=O)N[C@@H](CC(C)C)C(=O)N[C@@H](CCCCN)C(=O)N[C@@H](CCCCN)C(=O)N[C@@H](CC(C)C)C(=O)N[C@@H](CC(C)C)C(=O)N[C@@H](CCCCN)C(=O)N[C@@H](CCCCN)C(=O)N[C@@H](CC(C)C)C(=O)N[C@@H](CC(C)C)C(=O)N[C@@H](CCCCN)C(=O)O [KLLKQWPIGKLLKKLLKKLLK],MIC,[11],0.395 µM
same,MIC,[12],0.395 µM
same,MIC,[13],0.395 µM
same,MIC,[14],0.395 µM
same,MIC,[15],0.198 µM
same,MIC,[16],0.395 µM
same,MIC,[17],0.395 µM
same,MIC,[18],0.395 µM
same,MIC,[19],0.198 µM
CC[C@H](C)[C@H](NC(=O)[C@H](CC(C)C)NC(=O)[C@H](C)NC(=O)[C@@H]1CCCN1C(=O)[C@H](C)NC(=O)[C@@H](NC(=O)[C@H](CCCCN)NC(=O)[C@@H](N)CCCN=C(N)N)C(C)C)C(=O)N[C@@H](CCCCN)C(=O)N[C@@H](CO)C(=O)N[C@@H](Cc1ccccc1)C(=O)N[C@H](C(=O)N[C@@H](Cc1ccccc1)C(=O)N[C@@H](CC(C)C)C(=O)N[C@@H](Cc1ccccc1)C(=O)N[C@@H](CCCCN)C(=O)N[C@@H](Cc1ccccc1)C(=O)N[C@@H](CCCCN)C(=O)N[C@@H](CCCCN)C(=O)NCC(=O)O)C(C)C [RKVAPALIKSFVFLFKFKKG],MIC,Escherichia coli,> 110 µM
same,MIC,Staphylococcus aureus,55.1 µM
same,MIC,Bacillus anthracis,≥ 110 µM
same,MIC,Bacillus cereus,≥ 110 µM
CC(C)C[C@H](NC(=O)[C@H](C)NC(=O)[C@H](CO)NC(=O)[C@H](Cc1ccccc1)NC(=O)[C@@H](NC(=O)[C@H](CO)NC(=O)[C@@H]1CCCN1C(=O)[C@@H](NC(=O)[C@@H](NC(=O)[C@H](CCCCN)NC(=O)[C@H](CO)NC(=O)[C@H](C)NC(=O)[C@H](CC(C)C)NC(=O)[C@H](CCCCN)NC(=O)[C@H](Cc1ccccc1)NC(=O)[C@@H](NC(=O)[C@H](Cc1ccccc1)NC(=O)[C@@H](N)CO)C(C)C)C(C)C)C(C)C)C(C)C)C(=O)N[C@H](C(=O)N[C@@H](CCCN=C(N)N)C(=O)O)[C@@H](C)O [SFVFKLASKVVPSVFSALTR],MIC,Escherichia coli,117 µM
same,MIC,Staphylococcus aureus,117 µM
same,MIC,Bacillus anthracis,≥ 58.6 µM
same,MIC,Bacillus cereus,≥ 117 µM
